Laboratory results reported in patent US20180104361A1, “DYE MOLECULE AND DYE PREPARATIONS, IN PARTICULAR FOR USE IN SURGICAL METHODS OF OPHTHALMIC SURGERY AND FOR DYEING PROTEINS” (AL.CHI.MI.A. S.R.L., priority 2015, published 2018).

How the values were obtained:
egg white albumin = molecular target: T1, egg white albumin (Gallus gallus, UniProt P01012); assay: Affinity test by circular dichroism (CD) titration with albumin; type: binding; details: dye preparation in Ficoll 4% in a phosphate buffer (sterilised)
T1 construct: from tissue; host or cells: egg white
T1 sequence (P01012 1-386): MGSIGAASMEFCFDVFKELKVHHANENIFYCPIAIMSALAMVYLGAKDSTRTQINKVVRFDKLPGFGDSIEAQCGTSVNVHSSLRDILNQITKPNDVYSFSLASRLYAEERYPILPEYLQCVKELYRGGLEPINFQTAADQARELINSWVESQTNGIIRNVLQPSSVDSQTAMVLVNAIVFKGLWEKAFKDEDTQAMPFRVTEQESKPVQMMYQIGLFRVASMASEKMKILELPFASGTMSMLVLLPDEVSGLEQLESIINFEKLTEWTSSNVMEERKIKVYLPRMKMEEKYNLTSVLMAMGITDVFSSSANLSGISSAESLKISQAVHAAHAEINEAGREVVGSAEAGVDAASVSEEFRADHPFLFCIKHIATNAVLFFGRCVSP
Description: In fact, even in this sector, one of the most used dyes today is BBG. However, the Applicant has realised that although it can dye proteins, BBG actually has a relatively low affinity with the self-same proteins. […] It should be noticed that, to carry out the tests, the commercial BBG with a purity of 80% was preliminarily purified and the CD spectra were measured in the 800-400 nm region in the presence of increasing quantities of albumin. Finally, in the known way, the value of the association constant was determined using a non-linear regression of the intensity of the dichroic signal expressed in ΔA (AL-AR, where AL and AR respectively indicate the absorbency of the preparation as regards the two circularly polarized light waves used for the circular dichroism study, the left wave and the right wave) depending on the concentration of the egg white albumin, used as a reference. However, on this point what is indicated in the subsequent Affinity Tests section should also be considered. […]
Affinity was determined by means of CD (circular dichroism) spectroscopy. The CD spectra were measured in the 800-400 nm region in the presence of increasing quantities of egg white albumin which, as is known, for analyses of this type is commonly considered to be representative of proteins in general. […]

[1] = equal to 0.03% w/v; DIN EN ISO 10993; cited from earlier work

CCOc1ccc(Nc2ccc(/C(=C3C=C/C(=[N+](/CC)Cc4cccc(S(=O)(=O)[O-])c4)C=C/3C)c3ccc(N(CC)Cc4cccc(S(=O)(=O)O)c4)cc3C)cc2)cc1 [BBG-250, Brilliant Blue G 250]
association constant Ka (egg white albumin): approximately 60,000 M^−1
concentration at which considered not to be cytotoxic [1]: ≤ 0.3 g/I
